Results reported in US9688723B2, “C4S proteoglycan specific transporter molecules” (PHI PHARMA SA, priority 2012, dated 2017).
“Also recorded” adds a separate entry of the source. Where no end group is shown, it is not given here. [ ]: non-standard residue; d: D form.

Experiments:
[1] = test system: Raw macrophage-derived cells; experiment: Cell proliferation assay (phenol red, LDH content); assay type: cell-based; settings: for Effect on growth of raw macrophage-derived cells: 2.5 μM, 48 hrs, phenol red / LDH content
Experimental: Use of the exemplary peptide of the invention as a carrier moiety was also examined in a cell proliferation assay. Raw macrophage-derived cells were incubated for 48 hrs with 2.5 μM of the indicated nucleoside analog or the analog as a conjugate with the RYF peptide in the presence of phenol red. Cultures containing dividing cells turn medium clear, while the medium of cultures containing in non-dividing cells remains dark (active compounds). Percentage growth was also determined by measuring the relative content of LDH (FIG. 11B). […] For example, the “ribo” and “tg” (Thioguanine) compounds have no effect at the concentration tested (2.5 μm), but become potently cytotoxic when conjugated to an exemplary peptide transporter of the invention (i.e., RYF).
The Experiment was repeated to investigate the effects of the L- or D-linkage on cytotoxic properties of the BAM moiety. The cells were incubated with 3′ amino β-D-arabinofuranoside either alone or in the form of a conjugate with the RYF peptide. […] However, once the 3′ position is conjugated to a D-entantiomer, it cannot be removed by a protease, and once incorporated into the DNA-strand, it will function to prevent further DNA elongation.
The experiment was repeated with 3′AdT (3′ amino deoxythymidine) and 3′ amino β-D-arabinofuranoside (Ribo). Cells were incubated with each of the compounds alone or as an N-terminally linked conjugate to the RYF peptide via either L-Glu (E) or D-Glu (e). The cells were then incubated for 72 hrs before LDH content was measured.

[2] = test system: leukemia/lymphoma cell lines; experiment: Cancer cell line screening panel, summary over leukemia/lymphoma lines; assay type: cell-based, human; settings: 6 leukemia/lymphoma cell lines
Experimental: (§1) The use of peptides of the invention as carrier molecules was investigated in a screening panel of human cancer cell lines. The human tumor cell lines of the cancer screening panel were grown in RPMI 1640 medium containing 5% fetal bovine serum and 2 mM L-glutamine. For a typical screening experiment, cells were inoculated into 96 well microtiter plates in volumes of 100 μL at plating densities ranging from 5,000 to 40,000 cells/well depending on the doubling time of individual cell lines. […] After 24 h, two plates of each cell line were fixed in situ with TCA to provide a measurement of the cell population at the time of drug addition (Tz). The experimental therapeutics were solubilized in dimethyl sulfoxide at 400-fold the desired final maximum test concentration and stored frozen prior to use. […] Bound stain was subsequently solubilized with 10 mM trizma base, and the absorbance was read on an automated plate reader at a wavelength of 515 nm. […] Using the seven absorbance measurements [time zero, (Tz), control growth, (C), and test growth in the presence of compound at the five concentration levels (Ti)], the percentage growth was calculated at each of the compound concentrations levels. Percentage growth inhibition was calculated as: [(Ti−Tz)/(C−Tz)]×100 for concentrations for which Ti≧Tz [(Ti−Tz)/Tz]×100 for concentrations for which Ti<Tz.

[3] = test system: cell lines from other lineages; experiment: Cancer cell line screening panel, summary over other lineages; assay type: cell-based, human; settings: 54 cell lines from other lineages
Experimental: as §1

CHO cells = experiment: FITC-peptide binding to C4S expressing cells, fluorescence microscopy; assay type: cell-based; design: dose or concentration left out as unconfirmed; settings: FITC conjugated peptide, 24 hrs
Excerpt: (§2) As explained throughout the description, the present molecules are able to selectively bind C4S over other proteoglycans.

Sog9 cells = experiment: FITC-peptide binding to cells lacking C4S, fluorescence microscopy; assay type: cell-based; design: dose or concentration left out as unconfirmed; settings: FITC conjugated peptide, 24 hrs
Excerpt: as §2

Macrophages = experiment: FITC-RYF binding to chlorate pre-treated macrophages; assay type: cell-based; settings: 0, 3, 10 or 30 μM chlorate for 16 hours
Experimental: The same fluorescent microscopy procedure was used to assess the binding of the FITC-RYF peptide on C4S expressing cells pre-treated with chlorate. Chlorate is an inhibitor of sulfotransferases, and, thus, chlorate treatment decreases or inhibits C4S expression. Macrophages were treated with 0, 3, 10 or 30 μM chlorate for 16 hours prior to washing, incubation with RYF (SEQ ID NO:2) peptide and photography as described above.

[4] = test system: chondroitin-4-sulfate (C4S); experiment: Modified ELISA, peptide binding to coated proteoglycans
Experimental: The binding of the nine-mer peptides of the invention to C4S predicted by the models, in particular, as compared to the binding to other proteoglycans was tested using a modified ELISA protocol. ELISA plates were coated overnight with 1 mg/ml of heparin sulphate (HS), chondroitin-4-sulfate (C4S), chondroitin-6-sulfate (C6S) or hyaluronic acid (HA) in PBS. The wells were then washed with PBS and incubated for 1 hour at room temperature with 1 mg/ml of an exemplary peptide of the invention having the sequence RYFvRIKYRh (“RYF”; SEQ ID NO:2) or a standard TAT peptide. The plates were then thoroughly washed with PBS and subsequently photographed with a LUMASCOPE™ luminescent microscope. Images were then quantified using the ImageJ software (FIG. 4).
The same modified ELISA protocol was used to examine the impact of altering the chirality of the amino acid residues at positions 1, 5, 9 and 3 or 7 on the binding of the peptides to C4S. […] In FIG. 5, an upper case letter indicates an L-enantiomer and a lower case letter indicates a D-enantiomer.

Compound | Effect on growth of raw macrophage-derived cells [1] | Activity on cell growth (LDH content) ([1]; 72 hrs, alone or N-terminally linked to RYF via L-Glu (E) or D-Glu (e)) | mean growth [2] | mean growth [3] | Binding to CHO cells expressing C4S (CHO cells) | Binding to Sog9 cells lacking C4S (Sog9 cells) | Binding to macrophages pre-treated with chlorate (Macrophages) | Binding to C4S ([4]; ELISA plates coated with 1 mg/ml C4S, 1 mg/ml peptide, 1 hour, room temperature) | Selective binding to C4S over other proteoglycans ([4]; versus heparin sulphate (HS), chondroitin-6-sulfate (C6S), hyaluronic acid (HA))
3′ amino β-D-arabinofuranoside [Ribo] | no effect | inactive |  |  |  |  |  |  | 
Nc1nc2nc[nH]c2c(=S)[nH]1 [tg, Thioguanine] | no effect |  | 44.13 % of untreated | 86.65 % of untreated |  |  |  |  | 
RYFvRIKYRh (RYF[dV]RIKYR[dH]) |  |  |  |  | intense, uniform binding | did not bind; also recorded: failed to bind | binding correlated with chondroytine sulfate expression; also recorded: binding decreased with decreasing C4S expression | specifically binds to the C4S proteoglycan | selectively binds C4S over the other proteoglycans tested; also recorded: specifically and selectively binds C4S over other proteoglycans
